Measured values: the supplement of paper PMC10307832

Assays:
Experiment in all cases: relative viability (nuclei count vs DMSO), 5 days (fraction); higher = more cells survive
[1] = compound: C1=CC(=CC=C1NC(=S)NNC2=C(C=C(C=C2[N+](=O)[O-])C(F)(F)F)[N+](=O)[O-])F [Kobe2602] + C[C@@H](Oc1cc(-c2cnn(C3CCNCC3)c2)cnc1N)c1c(Cl)ccc(F)c1Cl [Crizotinib] (partner 1 µM)
Method in brief: (§1)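 The day after seeding in 1536-well plates, lung cancer cell lines were treated by pin tool with a single drug, or with a fixed anchor-drug dose together with five library-drug doses (not always all listed) in √10 steps. After 5 days, a combined fix-and-stain solution (final 0.05% Triton X-100, 1% formaldehyde, 1 ug/ml Hoechst) was added. Nuclei counted on 4× images gave relative viability as treated counts over vehicle counts, reported as the median of duplicate plates.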

[2] = compound: C1=CC(=CC=C1NC(=S)NNC2=C(C=C(C=C2[N+](=O)[O-])C(F)(F)F)[N+](=O)[O-])F [Kobe2602] + C[C@]1(O)C[C@@H](c2nc(-c3ccc4ccc(-c5ccccc5)nc4c3)c3c(N)nccn32)C1 [Linsitinib] (partner 1 µM)
Method in brief: as §1

[3] = compound: C1=CC(=CC=C1NC(=S)NNC2=C(C=C(C=C2[N+](=O)[O-])C(F)(F)F)[N+](=O)[O-])F [Kobe2602] + Cc1nc(NC(=O)N2CCC[C@H]2C(N)=O)sc1-c1ccnc(C(C)(C)C(F)(F)F)c1 [Alpelisib] (partner 2 µM)
Method in brief: as §1

[4] = compound: C1=CC(=CC=C1NC(=S)NNC2=C(C=C(C=C2[N+](=O)[O-])C(F)(F)F)[N+](=O)[O-])F [Kobe2602] + O=C(c1cc(Cc2n[nH]c(=O)c3ccccc23)ccc1F)N1CCN(C(=O)C2CC2)CC1 [Olaparib] (partner 8 µM)
Method in brief: as §1

Cell Line	relative viability ([1]; first compound 0.2 µM)	relative viability ([1]; first compound 0.6325 µM)	relative viability ([1]; first compound 2 µM)	relative viability ([1]; first compound 6.325 µM)	relative viability ([1]; first compound 20 µM)	relative viability ([2]; first compound 0.2 µM)	relative viability ([2]; first compound 0.6325 µM)	relative viability ([2]; first compound 2 µM)	relative viability ([2]; first compound 6.325 µM)	relative viability ([2]; first compound 20 µM)	relative viability ([3]; first compound 0.2 µM)	relative viability ([3]; first compound 0.6325 µM)	relative viability ([3]; first compound 2 µM)	relative viability ([3]; first compound 6.325 µM)	relative viability ([3]; first compound 20 µM)	relative viability ([4]; first compound 0.2 µM)	relative viability ([4]; first compound 0.6325 µM)	relative viability ([4]; first compound 2 µM)	relative viability ([4]; first compound 6.325 µM)	relative viability ([4]; first compound 20 µM)
NCI-H1437	0.862	0.918	0.902	0.91	0.9	0.974	0.995	1.03	0.998	0.872	0.938	1.01	0.914	0.956	0.938	0.666	0.632	0.6	0.562	0.475
NCI-H1651	0.908	0.887	0.978	0.847	0.859	0.83	1.14	1.07	0.976	0.906	0.964	0.932	0.792	0.809	0.965	0.186	0.165	0.189	0.19	0.193
NCI-H1666	0.919	1.01		1	0.746	0.683	0.76		0.713	0.76	0.97	0.925		0.893	0.768	0.717	0.741	0.829	0.774	0.805
NCI-H1703	0.775	0.66	0.56	0.829	0.501	0.609	0.99	0.499	0.749	0.377	0.313	0.347	0.333	0.392	0.306	0.454	0.364	0.4	0.483	0.431
NCI-H1734	0.71	0.652	0.604	0.599	0.735	0.895	0.899	0.849	0.964	0.897	0.71	0.816	0.665	0.726	0.784	0.601	0.626	0.635	0.642	0.665
NCI-H1755	0.842	0.851	0.821	0.83	0.884	0.949	0.898	0.986	0.977	0.982	0.906	0.874	0.919	0.866	0.956	0.848	0.893	0.87	0.853	0.915
NCI-H1792	0.965	0.928	0.985	0.726	1.05	0.563	0.53	0.613	0.521	0.558	0.633	0.749	0.696	0.615	0.679	0.372	0.556	0.398	0.253	0.566
NCI-H1915	0.886	0.92	0.897	0.931	0.91	1.08	1.12	1.08	1.08	1.1	1.1	1.09	1.02	1.06	1.05	0.275	0.251	0.246	0.269	0.307
